These results are taken from article PMC8327158, “PEGylated AdipoRon derivatives improve glucose and lipid metabolism under insulinopenic and high-fat diet conditions” (Journal of Lipid Research, 2021).

Values after ≈ are worked out from the molar mass of the structure shown.

Data set [1] is described as follows: Liver drug concentration and bioavailability after IP dosing. Type of data set: in vivo, C57BL/6J mice. The note with it: IP 20 mg/kg; for liver Cmax: 8-week-old C57BL/6J mice, mean ± SEM. As for the experimental part:
(§1) Two groups of male C57BL/6J mice (21 mice/group) at 8 weeks of age were dosed IP with 20 mg/kg AdipoRon or AdipoRonPEG5, 0.2 ml/mouse formulated as 10% DMSO/10% Cremophor/20% PEG400/60% PBS. Whole blood was harvested at seven time points post IP dosing, 10 min, 30 min, 90 min, 180 min, 360 min, 960 min, and 1,440 min. Three mice were euthanized at each time point. Plasma was processed from whole blood by centrifugation of the ACD-treated blood for 10′ at 10,000 rpm in a standard centrifuge. Additionally, the liver was harvested. The tissues were weighed and snap frozen in liquid nitrogen.
To measure liver drug concentration and bioavailability, we prepared standards by adding 98 μl blank liver homogenate to an Eppendorf, spiked with 2 μl of initial standard. For QCs, we added 98.8 μl blank liver homogenate to an Eppendorf, spiked with 1.2 μl of initial standard. For samples, we mixed 100 μl liver homogenate with 200 μl of methanol containing 0.15% formic acid and 75 ng/ml IS (IS final conc. = 50 ng/ml). The samples were vortexed 15 s, incubated at room temp for 10′, and spun 2× 13,200 rpm in a standard microcentrifuge. The supernatant was then analyzed by LC-MS/MS.

Another data set relates to INS-1 cells. The experiment in a line: qPCR gene expression in INS-1 cells. Type of data set: cell-based, rat. The note with it: for genes related to insulin secretion and β-cell differentiation transcription factors: absence of palmitate.
The subject of data set [2] is liver transcriptome of HFD-fed mice. The experiment in a line: RNA-seq of liver of HFD-fed mice. Type of data set: in vivo, mouse. The method, then:
RNA-sequence was performed by Novogene (Sacramento, CA) by utilizing isolated RNA. After the QC procedures, mRNA from eukaryotic organisms is enriched from total RNA using oligo(dT) beads. For prokaryotic samples, rRNA is removed using a specialized kit that leaves the mRNA. The mRNA from either eukaryotic or prokaryotic sources was then fragmented randomly in fragmentation buffer, followed by cDNA synthesis using random hexamers and reverse transcriptase. After first-strand synthesis, a custom second-strand synthesis buffer (Illumina) is added, with dNTPs, RNase H, and Escherichia coli polymerase I to generate the second strand by nick-translation, and AMPure XP beads are used to purify the cDNA. The final cDNA library is ready after a round of purification, terminal repair, A-tailing, ligation of sequencing adapters, size selection, and PCR enrichment. Library concentration was first quantified using a Qubit 2.0 fluorometer (Life Technologies) and then diluted to […] before checking insert size on an Agilent 2100 and quantifying to greater accuracy by quantitative PCR (Q-PCR) (library activity >2 nM). Libraries are fed into Novaseq6000 machines according to activity and expected data volume.
Differential expression of genes between AdipoRon-treated group and AdipoRonPEG5-treated group was analyzed by use of genes having an fpkm of ≥0 in all samples. Genes whose expression was “between 1.1 and 0.9 fold change” or “more than 1.1 fold up- “or “less than 0.9 fold down-“ regulated in liver RNA from control (n = 3) versus AdipoRon (n = 3) versus AdipoRonPEG5 group constituted “nc”, “up,” and “down” signatures. Gene expression was analyzed using Gene Ontology analysis (GO Consortium) and GenePattern software (Broad Institute).

Data set [3] can be described thus: Plasma pharmacokinetics after IP dosing. Type of data set: in vivo, C57BL/6J mice. Particulars: IP 20 mg/kg; for Cmax: male, mouse, plasma, 8-week-old C57BL/6J mice, mean ± SEM. The method, then: as §1
To quantify plasma drug concentration and PK, we prepared standards by adding 98 μl blank plasma (BioIVT) to an eppendorf. These were spiked with 2 μl of initial standard. For QCs, we added 98.8 μl blank plasma to Eppendorf, spiked with 1.2 μl of initial standard. For samples, we mixed 100 μl plasma with 200 μl of methanol containing 0.15% formic acid and 75 ng/ml IS (IS final conc. = 50 ng/ml). The samples were vortexed 15 s, incubated at room temp for 10′, and spun 2× 13,200 rpm in a standard microcentrifuge. The supernatant was then analyzed by LC-MS/MS.

A short description of data set [4]: Water solubility quantified by LC-MS/MS. Format: physicochemical. Particulars: for solubility: water. The method, then: We quantified the solubilities of AdiponRons by LC-MS/MS. Briefly, water (HPLC grade) was added in 50–100 μl increments to a glass vial containing either AdipoRon (0.97 mg) or AdipoRonPEG5 (1.69 mg), vortexed until the compound started to dissolve (AdipoRon, […]; AdipoRonPEG5, […]). The suspension was then stirred overnight away from light. The solution was transferred to Teflon tubes and centrifuged at 15,000 rpm at room temperature for 10 min. We then collected the supernatant (aqueous saturated solution) for dilution and analysis.
For standards, 98 μl water was added to an Eppendorf tube and combined with 200 μl of methanol containing 0.15% formic acid and 75 ng/ml […] Standard (IS, n-benzeylbenzamide in MeOH. IS final conc. = 50 ng/ml). Samples were spiked with 2 μl of IS. The samples were vortexed 15 s, and spun 2 × 13,200 rpm in a standard microcentrifuge. The supernatant was then analyzed by LC-MS/MS on a QTrap 4000 system (AB Sciex) with the following settings: Ion Source/Gas Parameters: CUR = 25, CAD = medium, IS = 5,000, TEM = 500, GS1 = 70, GS2 = 70. Buffer A: Water + 0.1% formic acid + 2 mM NH4OAC; Buffer B: methanol + 0.1% formic acid + 2 mM NH4OAC; flow rate 1.5 ml/min; Agilent C18 XDB column, 5 micron packing 50 × 4.6 mm size. HPLC elution gradient: 0–0.5 min 97% A, 0.5–2.0 min gradient to 100% B, 2.0–3.5 min 100% B, 3.5–3.6 min gradient to 97% A, 3.6–4.1 97% A. Compound transition 429.156 to 174.1 for AdipoRon and 665.289 to 135.2 for AdipoRonPEG5.

One may read the Cmax as the highest concentration seen after dosing. One may read the solubility as how much of the substance goes into solution per volume. Higher therefore signals a readily soluble substance. `O=C(COc1ccc(C(=O)c2ccccc2)cc1)NC1CCN(Cc2ccc(OCCOCCOCCOCCOCCO)cc2)CC1` [AdipoRonPEG5]: in data set [1], the “higher bioavailability in the liver than AdipoRon” value was “eightfold” and the “liver Cmax” value was determined as 25509.73 ± 1436.44 ng/mL. Besides, the “genes related to insulin secretion and β-cell differentiation transcription factors” value in the data set with INS-1 cells (20 μM) is given as “suppress”. The “expression of Ins1, Nkx6-1 and Kcnj11” value in the data set with INS-1 cells (20 μM, presence of palmitate) was “significantly increased”. For the same compound, the “expression of Hif-1α” value in the data set on INS-1 cells (PA-stressed INS-1 cells) is listed as “elevates”. For the same compound, in data set [2] (HFD 4 weeks, 5 mg/kg 5 days), the “AdipoR1 / AdipoR2 signaling pathway genes” value is “preference toward amplifying AdipoR1 signaling pathway”; the “gluconeogenesis-related genes in the liver” value was “inhibitory effect”; the “triglyceride- and glucose-metabolism-related genes incl. scd1, pck1” value is recorded as “downregulated”; the “upregulation of genes of the family of ceramidases” value is “highest”. In addition, the “glutathione S-transferases Gstm1 and Gstm2” value in data set [2] (top 30 genes) is recorded as “prominent increases”. In data set [3], the “increase in maximal plasma concentration compared with AdipoRon” value is recorded as “threefold” and the highest concentration (Cmax) worked out at 6510 ± 685 ng/mL. In data set [4] (vs AdipoRon), the “times more soluble in water than the parent molecule” value is reported as “about 100 times”. This compound returned a solubility in data set [4] (LC-MS/MS, mean ± SD) of 910 ± 36 µg/mL (≈ 1370 µM).

In the case of `O=C(COc1ccc(C(=O)c2ccccc2)cc1)NC1CCN(Cc2ccccc2)CC1` [AdipoRon], the “liver Cmax” value in data set [1] came to 3169.30 ± 1437.09 ng/mL. Moreover, in the data set with INS-1 cells (20 μM), the “genes related to insulin secretion and β-cell differentiation transcription factors” value is “suppress”. Moreover, in data set [2] (HFD 4 weeks, 5 mg/kg 5 days), the “AdipoR1 / AdipoR2 signaling pathway genes” value is “sided with AdipoR2 signaling” and the “upregulation of genes of the family of ceramidases” value is on record as “to a lesser extent”. In addition, the “lipogenesis genes Acly and Scd1” value in data set [2] (top 30 genes) is “highly upregulated”. Also, the peak level in data set [3] (Cmax) was 2170 ± 196 ng/mL. For the same compound, in data set [4] (LC-MS/MS, mean ± SD), the solubility in water amounted to 9 µg/mL (≈ 21 µM) and the solubility is 8.99 ± 0.15 µg/mL (≈ 21 µM).
